Values joined by “and” are separate entries in the source; they are usually repeats but may differ in a detail not shown here. Equal values may be shown once.
What was measured:
[1] = test system: miR-140; test: Expression of miR-140 in exosomal fractions by real-time PCR; type: cell-based, human; conditions: for Cp value: Hs miR-140_1 primer assay (miR-140-5p), single replicates n1, n2, low Cp value means a large amount of miR-140; for Cp value Average: Hs miR-140_1 primer assay, average of n1 and n2
Experimental: (§1) The fifth passage of immortalized chondrocytes was passaged and seeded in four flasks with a volume of 75 cm^2 at a concentration of 1.5×10^6 cells per flask. Culturing was started after adding 10 nM of estradiol to three of them and without adding it to one of them. […] The medium was collected from each flask the following day and then centrifuged at 1,500 rpm for 5 min. The supernatants were further filtered through a filter with a pore size of 0.22 um and stored as exosomal fractions at −80° C. until an analysis of miR.
cDNA synthesis was conducted with the extracted RNAs using miScript II RT Kit (catalog No. 218160, Qiagen) under the following conditions.
Real-time PCR reactions were conducted on a real-time PCR system (LightCycler 480, Roche) under the following conditions using miScript SYBR Green PCR Kit (catalog No. 218073, Qiagen) with the cDNAs synthesized as described above. The primer for the miR-140 measurement was Hs_miR-140_1 miScript Primer Assay (catalog No. MS00003500, has-miR-140-5p: MIMAT0000431).

[2] = test system: immortalized chondrocytes; test: Total RNA extracted from exosomal fractions of immortalized chondrocytes treated with exosome release enhancers (Nano Drop); type: cell-based, human; conditions: for Nucleic Acid conc.: RNA from exosomal fraction of culture supernatant, cells cultured with 10 nM estradiol, enhancer added on day four (10 uM monensin, 20 nM aplimod, 10 uM D609), Nano Drop, dilution ratio 1; for Amount of RNAs: same samples, liquid volume 15 ul
Experimental: as §1
MicroRNAs were extracted from the exosomal fractions in Example 2 using an exoRNAeasy Serum/Plasma Maxi Kit (Qiagen). The A260/A280 and A260/A230 ratios of the extracted RNAs were measured using a spectrophotometer Nano Drop One (Thermo Fisher Scientific), showing that the samples were free of protein and salt impurities. Electrophoresis of the samples was further conducted using Agilent 2100 Bioanalyzer (Aligent Technologies), confirming that only the target nucleic acids were contained.

Structure (SMILES) | Cp value ([1]; listed as 3-Apl) | Cp value Average [1] | Nucleic Acid conc. [2] [ng/µL] | Amount of RNAs [2] [ng] | Cp value ([1]; listed as 4-D) | miR-140 content compared with the other groups ([1]; from real-time PCR Cp values) | amount of nucleic acid collected (comparison among treatments) ([2]; compared with control, aplimod and D609 samples)
Cc1cccc(/C=N/Nc2cc(N3CCOCC3)nc(OCCc3ccccn3)n2)c1 [Apl, aplimod] | 36.78 and 36.76 | 36.77 | 179.7 | 2695.9 | – | – | –
S=C(S)OC1CC2CC1C1CCCC21 (stereo not drawn) [D, D609] | – | 36.87 | 206.3 | 3094.4 | 36.84 and 36.89 | – | –
CC[C@@]1([C@@H]2O[C@@H]([C@H]3O[C@@](O)(CO)[C@H](C)C[C@@H]3C)C[C@@H]2C)CC[C@H]([C@]2(C)CC[C@]3(C[C@H](O)[C@@H](C)[C@@H]([C@@H](C)[C@@H](OC)[C@H](C)C(=O)O)O3)O2)O1 [Mo, monensin] | – | – | 290.5 | 4357.6 | – | nearly twice as much miR-140 as the others | highest

From patent US20250223561A1, “PHARMACEUTICAL COMPOSITION CONTAINING miR-140 AND METHOD FOR PRODUCING SAME” (HIROKO SCIENCE INC., priority 2022, published 2025)
